Assay results published in patent US20250352550A1, “SUBSTITUTED FUROPYRIDINES FOR THERAPEUTIC USE” (MASARYKOVA UNIVERZITA, priority 2022, published 2025).
pIC50: −log10 of the molar value.

Target: T1, DDR1 (Homo sapiens, UniProt Q08345)
T1 construct: purchased Reaction Biology
Test: HotSpot radiometric kinase assay (Reaction Biology), DDR1
Format: biochemical
Details: 200 nM kinase, substrate IRS1tide 20 μM, 33P-ATP, 120 minutes at room temperature
Experimental: (§1) The compounds were profiled in the HotSpot radiometric assays (Reaction Biology).
Briefly, • 1. Substrate indicated in Table 1 was dissolved in freshly prepared reaction buffer (20 mM HEPES (pH 7.5), 10 mM MgCl2, 1 mM EGTA, 0.01% Brij35, 0.02 mg/ml BSA, 0.1 mM Na3VO4, 2 mM DTT, 1% DMSO) at the concentration indicated in Table 1. • 2. Corresponding kinase (concentration indicated in Table 1) was added and the mixture was gently mixed. • 3. Tested compound dissolved in DMSO was added into the kinase reaction mixture. • 4. ^33P-ATP (specific activity 0.01 μCi/μL final) was added into the reaction mixture to initiate the reaction. • 5. The kinase reaction was incubated for 120 minutes at room temperature. • 6. […] The radioactive phosphorylated substrate remaining on the filter paper was measured.
(§2) Kinase activity data were expressed as the percent remaining kinase activity in tested samples compared to the vehicle (DMSO) reactions. IC50 values and curve fits were obtained using Prism4 Software (GraphPad).

T1 sequence (Q08345 19-913): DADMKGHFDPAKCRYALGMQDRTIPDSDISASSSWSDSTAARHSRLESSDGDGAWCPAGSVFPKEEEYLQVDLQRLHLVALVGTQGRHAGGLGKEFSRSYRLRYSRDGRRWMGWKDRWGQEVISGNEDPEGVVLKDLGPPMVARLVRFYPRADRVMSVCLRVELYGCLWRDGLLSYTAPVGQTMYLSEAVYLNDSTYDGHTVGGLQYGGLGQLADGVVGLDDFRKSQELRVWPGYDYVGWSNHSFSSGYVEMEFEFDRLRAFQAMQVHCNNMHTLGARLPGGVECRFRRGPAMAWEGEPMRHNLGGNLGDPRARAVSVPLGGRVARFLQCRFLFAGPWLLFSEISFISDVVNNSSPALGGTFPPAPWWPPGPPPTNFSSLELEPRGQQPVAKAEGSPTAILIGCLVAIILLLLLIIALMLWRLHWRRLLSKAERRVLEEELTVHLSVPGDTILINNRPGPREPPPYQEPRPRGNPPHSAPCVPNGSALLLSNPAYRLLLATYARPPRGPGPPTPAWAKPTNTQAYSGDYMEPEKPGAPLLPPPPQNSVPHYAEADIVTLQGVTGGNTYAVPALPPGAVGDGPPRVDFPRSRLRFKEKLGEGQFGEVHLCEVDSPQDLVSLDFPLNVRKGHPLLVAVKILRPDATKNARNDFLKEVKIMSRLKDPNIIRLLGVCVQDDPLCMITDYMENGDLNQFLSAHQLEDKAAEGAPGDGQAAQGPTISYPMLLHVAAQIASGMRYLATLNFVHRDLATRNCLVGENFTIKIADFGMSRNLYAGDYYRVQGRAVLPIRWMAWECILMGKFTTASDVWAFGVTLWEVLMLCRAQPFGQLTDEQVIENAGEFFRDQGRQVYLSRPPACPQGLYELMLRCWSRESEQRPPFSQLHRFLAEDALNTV

SMILES | pIC50
c1cncc(-c2coc3cc(-c4ccc(N5CCNCC5)cc4)cnc23)c1 [Preparative Example 11, 6-(4-(piperazin-1-yl)phenyl)-3-(pyridin-3-yl)furo[3,2-b]pyridine] | 6.53
COc1ccccc1-c1coc2cc(-c3ccc(N4CCNCC4)cc3)cnc12 [Preparative Example 17, 3-(2-methoxyphenyl)-6-(4-(piperazin-1-yl)phenyl)furo[3,2-b]pyridine] | 6.74
N#Cc1cccc(-c2coc3cc(-c4ccc(N5CCNCC5)cc4)cnc23)c1 [Preparative Example 20, 3-(6-(4-(piperazin-1-yl)phenyl)furo[3,2-b]pyridin-3-yl)benzonitrile] | 6.80
c1cc(-c2coc3cc(-c4ccc(N5CCNCC5)nc4)cnc23)ccn1 [Preparative Example 25, 6-(6-(piperazin-1-yl)pyridin-3-yl)-3-(pyridin-4-yl)furo[3,2-b]pyridine] | 6.10
CN1CCN(c2ccc(-c3cnc4c(-c5cccc(-c6ccccc6)c5)coc4c3)cc2)CC1 [Preparative Example 158, 3-([1,1′-biphenyl]-3-yl)-6-(4-(4-methylpiperazin-1-yl)phenyl)furo[3,2-b]pyridine] | 6.74

Continued, values first:

pIC50 | SMILES
6.48 | C(#Cc1coc2cc(-c3ccc(N4CCNCC4)cc3)cnc12)c1ccccc1 [Preparative Example 191, 1-{4-[3-(2-phenylethynyl)furo[3,2-b]pyridin-6-yl]phenyl}piperazine]
6.68 | CCCc1oc2cc(-c3ccc(N4CCN(C)CC4)cc3)cnc2c1-c1ccc(C(N)=O)cc1 [Preparative Example 243, 4-{6-[4-(4-methylpiperazin-1-yl)phenyl]-2-propylfuro[3,2-b]pyridin-3-yl}benzamide]
6.51 | CCCc1oc2cc(-c3ccc(N4CCN(C)CC4)cc3)cnc2c1-c1cnn(C)c1 [Preparative Example 245, 1-methyl-4-{4-[3-(1-methyl-1H-pyrazol-4-yl)-2-propylfuro[3,2-b]pyridin-6-yl]phenyl}piperazine]
6.26 | CN1CCN(c2ccc(-c3cnc4c(-c5ccccc5)c(-c5ccccc5)oc4c3)cc2)CC1 [Preparative Example 249, 1-(4-{2,3-diphenylfuro[3,2-b]pyridin-6-yl}phenyl)-4-methylpiperazine]
6.58 | COc1ccc(-c2coc3cc(-c4ccc(N5CCN(C)CC5)cc4)cnc23)cn1 [Preparative Example 259, 3-(6-methoxypyridin-3-yl)-6-(4-(4-methylpiperazin-1-yl)phenyl)furo[3,2-b]pyridine]

Target: T2, FLT3 (Homo sapiens, UniProt P36888)
T2 construct: purchased Reaction Biology
T2 sequence (P36888 27-993): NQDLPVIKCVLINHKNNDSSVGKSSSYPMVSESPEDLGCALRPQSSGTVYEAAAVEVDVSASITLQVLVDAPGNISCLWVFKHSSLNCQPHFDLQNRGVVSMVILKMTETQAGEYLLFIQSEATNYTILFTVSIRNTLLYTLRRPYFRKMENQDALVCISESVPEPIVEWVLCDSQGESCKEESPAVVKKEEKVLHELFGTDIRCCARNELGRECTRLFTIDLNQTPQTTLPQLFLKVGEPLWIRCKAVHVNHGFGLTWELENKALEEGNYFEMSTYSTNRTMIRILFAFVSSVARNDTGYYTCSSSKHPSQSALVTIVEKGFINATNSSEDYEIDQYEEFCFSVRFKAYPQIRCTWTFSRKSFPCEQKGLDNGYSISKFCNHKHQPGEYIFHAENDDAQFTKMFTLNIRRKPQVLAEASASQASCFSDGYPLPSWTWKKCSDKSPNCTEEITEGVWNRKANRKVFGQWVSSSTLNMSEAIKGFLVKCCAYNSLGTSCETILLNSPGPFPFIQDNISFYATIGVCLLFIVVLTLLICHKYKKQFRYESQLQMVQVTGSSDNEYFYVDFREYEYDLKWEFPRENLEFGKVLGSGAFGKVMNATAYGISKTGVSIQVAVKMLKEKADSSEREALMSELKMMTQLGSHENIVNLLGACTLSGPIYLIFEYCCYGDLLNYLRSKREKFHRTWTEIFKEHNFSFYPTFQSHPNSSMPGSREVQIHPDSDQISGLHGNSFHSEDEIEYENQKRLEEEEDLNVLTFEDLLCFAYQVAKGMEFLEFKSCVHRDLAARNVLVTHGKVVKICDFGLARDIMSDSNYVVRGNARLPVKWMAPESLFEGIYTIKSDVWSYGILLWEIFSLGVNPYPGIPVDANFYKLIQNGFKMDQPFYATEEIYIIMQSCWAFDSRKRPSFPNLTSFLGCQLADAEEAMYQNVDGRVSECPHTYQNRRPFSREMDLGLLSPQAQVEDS
Test: HotSpot radiometric kinase assay (Reaction Biology), FLT3
Format: biochemical
Details: 4 nM kinase, substrate ABLtide 20 μM, 33P-ATP, 120 minutes at room temperature
Experimental: as §1
Briefly, • 1. Substrate indicated in Table 1 was dissolved in freshly prepared reaction buffer (20 mM HEPES (pH 7.5), 10 mM MgCl2, 1 mM EGTA, 0.01% Brij35, 0.02 mg/ml BSA, 0.1 mM Na3VO4, 2 mM DTT, 1% DMSO) at the concentration indicated in Table 1. • 2. Corresponding kinase (concentration indicated in Table 1) was added and the mixture was gently mixed. • 3. Tested compound dissolved in DMSO was added into the kinase reaction mixture. • 4. ^33P-ATP (specific activity 0.01 μCi/μL final) was added into the reaction mixture to initiate the reaction. • 5. The kinase reaction was incubated for 120 minutes at room temperature. • 6. Reaction mixture was spotted onto P81 ion exchange paper (Whatman K 3698-915). • 7. The filters were extensively washed with […]. • 7. The radioactive phosphorylated substrate remaining on the filter paper was measured.
as §2
Table 2 summarizes the inhibitory activities of indicated compounds tested in the in vitro kinase assays described above.

SMILES | pIC50
NC(=O)Nc1cccc(-c2coc3cc(-c4ccccc4)cnc23)c1 [1-(3-(6-phenylfuro[3,2-b]pyridin-3-yl)phenyl)urea] | 7.34
Cc1cc(-c2coc3cc(-c4ccc(N5CCNCC5)cc4)cnc23)cc(C)n1 [Preparative Example 8, 3-(2,6-dimethylpyridin-4-yl)-6-(4-(piperazin-1-yl)phenyl)furo[3,2-b]pyridine] | 6.55
c1cncc(-c2coc3cc(-c4ccc(N5CCNCC5)cc4)cnc23)c1 [Preparative Example 11, 6-(4-(piperazin-1-yl)phenyl)-3-(pyridin-3-yl)furo[3,2-b]pyridine] | 7.60
COc1ccccc1-c1coc2cc(-c3ccc(N4CCNCC4)cc3)cnc12 [Preparative Example 17, 3-(2-methoxyphenyl)-6-(4-(piperazin-1-yl)phenyl)furo[3,2-b]pyridine] | 6.65
N#Cc1cccc(-c2coc3cc(-c4ccc(N5CCNCC5)cc4)cnc23)c1 [Preparative Example 20, 3-(6-(4-(piperazin-1-yl)phenyl)furo[3,2-b]pyridin-3-yl)benzonitrile] | 7.05
c1ccc(-c2cnc3c(-c4ccncc4)coc3c2)cc1 [Preparative Example 22, 6-phenyl-3-(pyridin-4-yl)furo[3,2-b]pyridine] | 6.74
c1cc(-c2coc3cc(-c4ccc(N5CCOCC5)nc4)cnc23)ccn1 [Preparative Example 23, 6-(6-morpholinopyridin-3-yl)-3-(pyridin-4-yl)furo[3,2-b]pyridine] | 7.00
c1cc(-c2coc3cc(-c4ccc(N5CCNCC5)nc4)cnc23)ccn1 [Preparative Example 25, 6-(6-(piperazin-1-yl)pyridin-3-yl)-3-(pyridin-4-yl)furo[3,2-b]pyridine] | 7.31
Nc1ccc(-c2cnc3c(-c4ccncc4)coc3c2)cc1 [Preparative Example 47, 4-(3-(pyridin-4-yl)furo[3,2-b]pyridin-6-yl)aniline] | 7.05
c1cc(-c2coc3cc(-c4ccc(N5CCCCC5)nc4)cnc23)ccn1 [Preparative Example 48, 6-(6-(piperidin-1-yl)pyridin-3-yl)-3-(pyridin-4-yl)furo[3,2-b]pyridine] | 6.87
CC(C)c1ccc(-c2coc3cc(-c4ccc(N5CCNCC5)cc4)cnc23)cc1 [Preparative Example 67, 3-(4-isopropylphenyl)-6-(4-(piperazin-1-yl)phenyl)furo[3,2-b]pyridine] | 6.22
Cc1nc2c(-c3ccncc3)coc2cc1-c1ccc(N2CCN(C)CC2)cc1 [Preparative Example 80, 5-methyl-6-(4-(4-methylpiperazin-1-yl)phenyl)-3-(pyridin-4-yl)furo[3,2-b]pyridine] | 6.86
c1ccc(Nc2cnc3c(-c4ccncc4)coc3c2)cc1 [Preparative Example 84, N-phenyl-3-(pyridin-4-yl)furo[3,2-b]pyridin-6-amine] | 6.86
CN(C)CCN(C)c1ccc(Nc2cnc3c(-c4ccncc4)coc3c2)cc1 [Preparative Example 98, N^1-(2-(dimethylamino)ethyl)-N^1-methyl-N^4-(3-(pyridin-4-yl)furo[3,2-b]pyridin-6-yl)benzene-1,4-diamine] | 6.91
Cc1ccc(NC(=O)c2cccc(-c3coc4cc(-c5ccc(N6CCNCC6)cc5)cnc34)c2)cc1 [Preparative Example 119, 3-(6-(4-(piperazin-1-yl)phenyl)furo[3,2-b]pyridin-3-yl)-N-(p-tolyl)benzamide] | 6.10
O=S(=O)(NCc1ccccc1)c1cccc(-c2coc3cc(-c4ccc(N5CCNCC5)cc4)cnc23)c1 [Preparative Example 122, N-benzyl-3-(6-(4-(piperazin-1-yl)phenyl)furo[3,2-b]pyridin-3-yl)benzenesulfonamide] | 6.86

Now from value to molecule:

pIC50 | SMILES
6.69 | c1ncc(-c2coc3cc(-c4ccc(N5CCNCC5)cc4)cnc23)cn1 [Preparative Example 206, 5-{6-[4-(piperazin-1-yl)phenyl]furo[3,2-b]pyridin-3-yl}pyrimidine]
6.30 | CN1CCN(c2ccc(-c3cnc4c(-c5cccc(C(N)=O)c5F)coc4c3)cc2)CC1 [Preparative Example 214, 2-fluoro-3-(6-(4-(4-methylpiperazin-1-yl)phenyl)furo[3,2-b]pyridin-3-yl)benzamide]
7.27 | CN1CCN(c2ccc(-c3cnc4c(-c5ccc(CC(N)=O)cc5)coc4c3)cc2)CC1 [Preparative Example 236, 2-(4-(6-(4-(4-methylpiperazin-1-yl)phenyl)furo[3,2-b]pyridin-3-yl)phenyl)acetamide]
6.95 | CN1CCN(c2ccc(-c3cnc4c(-c5ccc(NC(N)=O)cc5)coc4c3)cc2)CC1 [Preparative Example 251, (4-{6-[4-(4-methylpiperazin-1-yl)phenyl]furo[3,2-b]pyridin-3-yl}phenyl)urea]
5.71 | c1ccc(-c2coc3ccc(Nc4ccc(N5CCOCC5)cc4)nc23)cc1 [compound 8B from WO 2015/165428, reference compound]
5.99 | CN1CCN(c2ccc(Nc3ccc4occ(-c5ccccc5)c4n3)cc2)CC1 [compound 8C from WO 2015/165428, reference compound]
5.91 | c1ccc(-c2coc3ccc(Nc4ccncc4)nc23)cc1 [compound 8D from WO 2015/165428, reference compound]
5.57 | c1ccc(Nc2ccc3occ(-c4ccccc4)c3n2)cc1 [compound 8E from WO 2015/165428, reference compound]
